Data as given in patent publication US12410133B2, “Crystalline (r)-5-carbamoylpyridin-3-yl-2-methyl-4-(3-(trifluoromethoxy)benzyl)piperazine-1-carboxylate, compositions and methods of use thereof” (Celgene Corporation, priority 2018, dated 2025).

Experiment: pKa detection by Sirius T3
Assay type: physicochemical
Settings: Sirius T3, range 2.0 to 12.0, in triplicate; read-out: Measured pKa value
Protocol: A summary of baseline solid state characterization results of crystalline (R)-5-carbamoylpyridin-3-yl-2-methyl-4-(3-(trifluoromethoxy)benzyl)piperazine-1-carboxylate Form A, including pKa, partition coefficient (log D7.4) measurement and 2-hrs equilibrium solubility in FaSSIF and FeSSIF (version 2) are provided herein. […] Log D7.4 was measured with the solvent system of pH 7.4 phosphate buffer and n-octanol by shake-flask method. Meanwhile, 2-hrs equilibrium solubility of (R)-5-carbamoylpyridin-3-yl-2-methyl-4-(3-(trifluoromethoxy)benzyl)piperazine-1-carboxylate in FaSSIF and FeSSIF (version 2) was measured to be 0.12 and 0.080 mg/mL.

With `C[C@@H]1CN(Cc2cccc(OC(F)(F)F)c2)CCN1C(=O)Oc1cncc(C(N)=O)c1` [Form A, (R)-5-carbamoylpyridin-3-yl-2-methyl-4-(3-(trifluoromethoxy)benzyl)piperazine-1-carboxylate] the pKa was 5.79.
